Laboratory results as given in the NIST ThermoML archive (doi:10.1016/j.fluid.2015.07.023).
Numbers after ± are expanded uncertainties.

Assays:
[1] = 298.15 K; 101.33 kPa; Liquid; mechanical oscillator
[2] = refractive index (Na D-line) (dimensionless); settings: 298.15 K; 101.33 kPa; Liquid; Standard Abbe refractometry

| mass density [1] [kg/m3] | refractive index [2] | SMILES |
| --- | --- | --- |
| 718.3 ± 0.3 | 1.3653 ± 0.0007 | CC(C)OC(C)C [diisopropyl ether] |
| 786.62 ± 0.21 | 1.32666 ± 0.00068 | CO [methanol] |
| 782.45 ± 0.21 | 1.37522 ± 0.00068 | CC(C)O [propan-2-ol] |
